Test [1] relates to Staphylococcus aureus ATCC 6538. As to the kind of experiment: MIC test with asymmetrical compounds on S. aureus. As to conditions: ATCC6538, Table 5, read-out: MIC S. aureus ATCC 6538. Type of test: cell-based. As for the experimental part:
(§1) Growth inhibition experiments were performed according to the following protocol: […] Microtiter plate wells were filled with 495 microliter of this suspension to which 5 microliter of selected compounds dissolved in DMSO was added (final concentration of each compound was 10 microgram per ml). This was all performed in an anaerobic cabinet. After filling the microtiter plate was sealed and incubated for 22 hours at 37° C. Inhibiting compounds were selected by visually determining growth inhibition. According to the same protocol as in Example 3 asymmetrical compounds were tested on their inhibitory effect of C. difficile, but also on other bacterial species, such as S. aureus and B. cereus. In the below tables the compounds and the MIC values that have been found for the various micro-organisms are listed. In the tests described in Table 4 and 5 the medium indicated as 'flora' is the SIEM medium described in […], Schols H A, Nauta A, Schoterman […]. High-throughput analysis of the impact of antibiotics on the human intestinal microbiota composition.

Test [2] has as its system Bacillus cereus ATCC 11778. Briefly: MIC test with asymmetrical compounds on B. cereus. Type of test: cell-based. To be noted: ATCC11778, Table 5, read-out: MIC B. cereus ATCC 11778. As for the experimental part:
as §1

The subject of test [3] is C. difficile ATCC 43599 vegetative cells. As to the kind of experiment: MIC test with asymmetrical compounds on C. difficile vegetative cells. The format is cell-based, Clostridium difficile. To be noted: for MIC Veg. cells: Table 3; for MIC: Clostridioides difficile. As for the experimental part:
as §1

The subject of test [4] is C. difficile ATCC 43599 spores. Briefly: MIC test with asymmetrical compounds on C. difficile spores. Type of test: cell-based, Clostridium difficile. As to conditions: for MIC: Clostridioides difficile; for MIC spores: Table 3. As for the experimental part: as §1
Where [5] appears, read: vegetative cells, tested concentrations 10 μg/ml-0.003 μg/ml if not indicated otherwise.
[6] abbreviates: Table 4, SAB model medium, tested concentrations 1.2 μg/ml-0.03 μg/ml if not indicated otherwise.
The mark [7] stands for this setting: Table 4, flora (SIEM) medium, tested concentrations 1.2 μg/ml-0.03 μg/ml if not indicated otherwise.
Where [8] appears, read: ATCC43599, Table 4, flora (SIEM) medium, tested concentrations 1.2 μg/ml-0.03 μg/ml if not indicated otherwise, read-out: MIC spores flora.
Where [9] appears, read: spores, tested concentrations 10 μg/ml-0.003 μg/ml if not indicated otherwise.
The mark [10] stands for this setting: ATCC43599, 22 h, Table 4, SAB model medium, tested concentrations 1.2 μg/ml-0.03 μg/ml if not indicated otherwise, read-out: MIC veg. cells SAB model medium.
Setting [11] is: ATCC43599, Table 3, vegetative cells, tested concentrations 10 μg/ml-0.003 μg/ml if not indicated otherwise, read-out: MIC Veg. cells.
Setting [12] is: ATCC43599, Table 4, flora (SIEM) medium, tested concentrations 1.2 μg/ml-0.03 μg/ml if not indicated otherwise, read-out: MIC veg. cells flora.
The mark [13] stands for this setting: ATCC43599, 22 h, Table 4, SAB model medium, tested concentrations 1.2 μg/ml-0.03 μg/ml if not indicated otherwise, read-out: MIC spores SAB model medium.
Setting [14] is: ATCC43599, Table 3, spores, tested concentrations 10 μg/ml-0.003 μg/ml if not indicated otherwise, read-out: MIC spores.

≈ marks a conversion by molar mass, not a printed value. Read-outs that look alike come from different tables or passages of the source. Marks after values point to notes of the source that are not given here. Some results are limits rather than exact numbers.

As for `O=C1NC(=O)c2ccc3c4c(ccc1c24)C(=O)N(Cc1cccnc1)C3=O` [20141155PBmol13], the MIC in test [1] and in test [2] was more than 100 µg/mL each time.

Consider `O=C1NC(=O)c2ccc3c4c(ccc1c24)C(=O)N(c1ccccc1)C3=O` [4456-3445 (6739753)], for which the “MIC Veg. cells” value in test [3] (setting [5]) is <0.3* ug/ml. In addition, the “MIC veg. cells SAB model medium” value in test [3] (setting [6]) was less than 0.3 µg/mL. The “MIC veg. cells flora” value in test [3] (setting [7]) lay within 0.6 to 1.2 µg/mL. Also, in test [4] (setting [8]), the MIC was in the range of 0.6 to 1.2 µg/mL (≈ 1.75 to 3.51 µM). In addition, in test [4] (setting [9]), the MIC spores was <0.3* ug/ml. Besides, the “MIC spores SAB model medium” value in test [4] (setting [6]) is less than 0.3 µg/mL.

On to `Cc1ncc([N+](=O)[O-])n1CCO` [Metronadizol, reference compound], for which the MIC in test [3] (setting [10]), in test [3] (setting [11]), in test [3] (setting [12]), in test [4] (setting [13]), in test [4] (setting [14]) and in test [4] (setting [8]) was less than 0.3 µg/mL in each case.

For `O=C1c2ccc3c4c(ccc(c24)C(=O)N1CCO)C(=O)N(CCO)C3=O` [A0547/0025269], the MIC is 0.6 to 1.2 µg/mL (≈ 1.69 to 3.39 µM) in test [3] (setting [10]); 0.3 to 0.6 µg/mL (≈ 0.847 to 1.69 µM) in test [3] (setting [11]); 0.3 to 0.6 µg/mL (≈ 0.847 to 1.69 µM) in test [3] (setting [12]); 0.3 to 0.6 µg/mL (≈ 0.847 to 1.69 µM) in test [4] (setting [13]); 0.3 to 0.6 µg/mL (≈ 0.847 to 1.69 µM) in test [4] (setting [14]); 0.6 to 1.2 µg/mL (≈ 1.69 to 3.39 µM) in test [4] (setting [8]).

As for `Cc1ccc(C)c(N2C(=O)c3ccc4c5c(ccc(c35)C2=O)C(=O)NC4=O)c1` [20141155PBmol23], the MIC in test [3] (setting [10]) is 0.07 to 0.15 µg/mL (≈ 0.189 to 0.405 µM); in test [3] (setting [11]), 0.07 to 0.15 µg/mL (≈ 0.189 to 0.405 µM); in test [3] (setting [12]), 0.3 to 0.6 µg/mL (≈ 0.81 to 1.62 µM); in test [1] it was more than 100 µg/mL; in test [2] it was 100 µg/mL (≈ 270 µM); in test [4] (setting [13]), 0.07 to 0.15 µg/mL (≈ 0.189 to 0.405 µM). The MIC in test [4] (setting [14]) was 0.03 to 0.07 µg/mL (≈ 0.081 to 0.189 µM); in test [4] (setting [8]) it was more than 1.2 µg/mL.

With `O=C1NC(=O)c2ccc3c4c(ccc1c24)C(=O)N(CCO)C3=O` [20141155PBmol57], the MIC in test [3] (setting [10]) was 0.3 to 0.6 µg/mL (≈ 0.967 to 1.93 µM); in test [3] (setting [11]), 0.15 to 0.3 µg/mL (≈ 0.483 to 0.967 µM); in test [3] (setting [12]), 0.07 to 0.15 µg/mL (≈ 0.226 to 0.483 µM); in test [1], 40 µg/mL (≈ 129 µM); in test [2], 4 µg/mL (≈ 12.9 µM); in test [4] (setting [13]) it was 0.3 to 0.6 µg/mL (≈ 0.967 to 1.93 µM). Further, the MIC fell in the range of 0.15 to 0.3 µg/mL (≈ 0.483 to 0.967 µM) in test [4] (setting [14]) and 0.6 to 1.2 µg/mL (≈ 1.93 to 3.87 µM) in test [4] (setting [8]).

On to `CC(=O)OCCN1C(=O)c2ccc3c4c(ccc(c24)C1=O)C(=O)NC3=O` [20141155PBmol21], for which the MIC is 0.03 to 0.07 µg/mL (≈ 0.0852 to 0.199 µM) in test [3] (setting [11]); 0.15 to 0.3 µg/mL (≈ 0.426 to 0.852 µM) in test [3] (setting [12]); more than 100 µg/mL in test [1]; 40 µg/mL (≈ 114 µM) in test [2]; 0.03 to 0.07 µg/mL (≈ 0.0852 to 0.199 µM) in test [4] (setting [13]); 0.01 to 0.03 µg/mL (≈ 0.0284 to 0.0852 µM) in test [4] (setting [14]). Besides, the MIC in test [4] (setting [8]) was in the range of 0.3 to 0.6 µg/mL (≈ 0.852 to 1.7 µM).

Take `O=C1NC(=O)c2ccc3c4c(ccc1c24)C(=O)N(c1ccccc1O)C3=O` [20141155PBmol10]: the MIC in test [3] (setting [10]) is 0.3 to 0.6 µg/mL (≈ 0.837 to 1.67 µM); in test [3] (setting [11]), 0.3 to 0.6 µg/mL (≈ 0.837 to 1.67 µM); in test [3] (setting [12]), 0.15 to 0.3 µg/mL (≈ 0.419 to 0.837 µM); in test [1], 40 µg/mL (≈ 112 µM); in test [2], 4 µg/mL (≈ 11.2 µM); in test [4] (setting [13]) it was 0.3 to 0.6 µg/mL (≈ 0.837 to 1.67 µM). Further, the MIC in test [4] (setting [14]) was 0.15 to 0.3 µg/mL (≈ 0.419 to 0.837 µM); in test [4] (setting [8]), more than 1.2 µg/mL.

For `O=C1NC(=O)c2ccc3c4c(ccc1c24)C(=O)N(c1ccccc1)C3=O` [20141155PBmol19], the “MIC Veg. cells” value in test [3] (setting [5]) lay in the range of 0.01 to 0.03 µg/mL. For the same compound, the “MIC veg. cells SAB model medium” value in test [3] (setting [6]) is less than 0.03 µg/mL. The “MIC veg. cells flora” value in test [3] (setting [7]) was 0.15 to 0.3 µg/mL. The MIC in test [1] and in test [2] was more than 100 µg/mL in each case. The compound further had an MIC spores in test [4] (setting [9]) of 0.007 to 0.01 µg/mL. The “MIC spores SAB model medium” value in test [4] (setting [6]) is less than 0.03 µg/mL.

By MIC is commonly meant the lowest concentration found to suppress growth.
